Laboratory results reported in ChEMBL document CHEMBL1132978, “Artificial neural network applied to prediction of fluorquinolone antibacterial activity by topological methods” (2000).
Values after ≈ are worked out from the molar mass of the structure shown.

System: Escherichia coli
Assay: Minimum inhibitory concentration against Escherichia coli
Format: functional

Row | MIC [mg/L] | SMILES
1 | 0.1 (≈ 0.256 µM) | COc1c(N2CCCC(N)C2)c(F)c(N)c2c(=O)c(C(=O)O)cn(C3CC3)c12 (stereo not drawn)
2 | 0.013 (≈ 0.0372 µM) | NC1CCN(c2c(F)cc3c(=O)c(C(=O)O)cn(C4CC4)c3c2F)C1 (stereo not drawn)
3 | 0.05 (≈ 0.148 µM) | CCn1cc(C(=O)O)c(=O)c2cc(F)c(N3CCC(N)C3)c(F)c21 (stereo not drawn)
4 | 0.05 (≈ 0.128 µM) | CCOc1c(N2CCC(N)C2)c(F)c(N)c2c(=O)c(C(=O)O)cn(C3CC3)c12 (stereo not drawn)
5 | 0.05 (≈ 0.144 µM) | NCC1CCN(c2nc3c(cc2F)c(=O)c(C(=O)O)cn3C2CC2)C1 (stereo not drawn)
6 | 0.1 (≈ 0.278 µM) | CCC1CN(c2cc3c(cc2F)c(=O)c(C(=O)O)cn3C2CC2)CCN1 (stereo not drawn)
7 | 0.2 (≈ 0.533 µM) | CC1CN(c2cc3c(cc2F)c(=O)c(C(=O)O)cn3C(C)(C)C)CC(C)N1 (stereo not drawn)
8 | 0.8 (≈ 1.85 µM) | CCNCC1CCN(c2c(F)cc3c(=O)c(C(=O)O)cn(C4CC4)c3c2OCC)CC1
9 | 0.1 (≈ 0.268 µM) | CC(C)N1CCN(c2cc3c(cc2F)c(=O)c(C(=O)O)cn3C2CC2)CC1
10 | 0.2 (≈ 0.6 µM) | CCn1cc(C(=O)O)c(=O)c2cc(F)c(N3CCNC(C)C3)cc21 (stereo not drawn)
11 | 0.2 (≈ 0.495 µM) | CCOc1c(N2CCCC(N)C2)c(F)c(N)c2c(=O)c(C(=O)O)cn(C3CC3)c12 (stereo not drawn)
12 | 0.05 (≈ 0.132 µM) | NCC1CCCN(c2c(F)cc3c(=O)c(C(=O)O)cn(C4CC4)c3c2F)C1 (stereo not drawn)
13 | 0.1 (≈ 0.267 µM) | CCNCC1CCN(c2nc3c(cc2F)c(=O)c(C(=O)O)cn3C2CC2)C1 (stereo not drawn)
14 | 0.8 (≈ 1.74 µM) | CCCCN1CCN(c2cc3c(cc2F)c(=O)c(C(=O)O)cn3-c2ccc(F)cc2F)CC1
15 | 0.025 (≈ 0.0637 µM) | CNCC1CCN(c2c(F)c(N)c3c(=O)c(C(=O)O)cn(C4CC4)c3c2F)C1 (stereo not drawn)
16 | 0.1 (≈ 0.257 µM) | CCNCC1CCN(c2cc3c(c(N)c2F)c(=O)c(C(=O)O)cn3C2CC2)C1 (stereo not drawn)
17 | 0.2 (≈ 0.576 µM) | CC(C)(C)n1cc(C(=O)O)c(=O)c2cc(F)c(N3CCC(N)C3)cc21 (stereo not drawn)
18 | 0.1 (≈ 0.24 µM) | CC1CN(c2cc3c(cc2F)c(=O)c(C(=O)O)cn3-c2ccc(F)cc2F)CCN1 (stereo not drawn) [TEMAFLOXACIN]
19 | 0.1 (≈ 0.257 µM) | COc1c(N2CC(C)NC(C)C2)c(F)cc2c(=O)c(C(=O)O)cn(C3CC3)c12 (stereo not drawn)
20 | 0.4 (≈ 1.07 µM) | NCC1CCCN(c2c(F)cc3c(=O)c(C(=O)O)cn(C4CC4)c3c2N)C1 (stereo not drawn)
21 | 0.2 (≈ 0.516 µM) | CC(C)CN1CCN(c2cc3c(cc2F)c(=O)c(C(=O)O)cn3C2CC2)CC1
22 | 0.4 (≈ 1.07 µM) | CC1CN(c2cc3c(cc2F)c(=O)c(C(=O)O)cn3C2CCC2)CC(C)N1 (stereo not drawn)
23 | 0.8 (≈ 2.3 µM) | CC1CN(c2cc3c(cc2F)c(=O)c(C(=O)O)cn3C(C)C)CCN1 (stereo not drawn)

Row | MIC [mg/L] | SMILES
24 | 0.013 (≈ 0.0375 µM) | Nc1c(F)c(N2CCC(N)C2)cc2c1c(=O)c(C(=O)O)cn2C1CC1 (stereo not drawn)
25 | 0.4 (≈ 0.898 µM) | CCNCC1CCN(c2cc3c(cc2F)c(=O)c(C(=O)O)cn3-c2ccc(F)cc2F)C1 (stereo not drawn)
26 | 0.05 (≈ 0.12 µM) | NCC1CCN(c2nc3c(cc2F)c(=O)c(C(=O)O)cn3-c2ccc(F)cc2F)C1 (stereo not drawn)
27 | 0.05 (≈ 0.145 µM) | CC1CN(c2cc3c(cc2F)c(=O)c(C(=O)O)cn3C2CC2)CCN1 (stereo not drawn)
28 | 0.05 (≈ 0.145 µM) | CN1CCN(c2cc3c(cc2F)c(=O)c(C(=O)O)cn3C2CC2)CC1
29 | 0.05 (≈ 0.133 µM) | COc1c(N2CCNC(C)C2)c(F)cc2c(=O)c(C(=O)O)cn(C3CC3)c12 (stereo not drawn) [GATIFLOXACIN]
30 | 0.013 (≈ 0.0355 µM) | NC1CCN(c2c(F)cc3c(=O)c(C(=O)O)cn(C4CC4)c3c2Cl)C1 (stereo not drawn) [CLINAFLOXACIN]
31 | 0.1 (≈ 0.248 µM) | CCNCC1CCN(c2c(F)cc3c(=O)c(C(=O)O)cn(C4CC4)c3c2OC)C1 (stereo not drawn)
32 | 0.1 (≈ 0.248 µM) | O=C(O)c1cn(-c2ccc(F)cc2F)c2cc(N3CCNCC3)c(F)cc2c1=O
33 | 0.2 (≈ 0.555 µM) | CC1(CN)CCN(c2nc3c(cc2F)c(=O)c(C(=O)O)cn3C2CC2)C1 (stereo not drawn)
34 | 0.1 (≈ 0.285 µM) | CCn1cc(C(=O)O)c(=O)c2cc(F)c(N3CCC(CN)C3)c(F)c21 (stereo not drawn)
35 | 3.1 (≈ 8.58 µM) | CNCC1CCN(c2cc3c(cc2F)c(=O)c(C(=O)O)cn3C(C)C)C1 (stereo not drawn)
36 | 0.025 (≈ 0.0688 µM) | NCC1CCN(c2c(F)cc3c(=O)c(C(=O)O)cn(C4CC4)c3c2F)C1 (stereo not drawn)
37 | 1.6 (≈ 4.43 µM) | CC1CN(c2cc3c(cc2F)c(=O)c(C(=O)O)cn3C(C)C)CC(C)N1 (stereo not drawn)
38 | 0.05 (≈ 0.151 µM) | NC1CCN(c2cc3c(cc2F)c(=O)c(C(=O)O)cn3C2CC2)C1 (stereo not drawn)
39 | 3.1 (≈ 6.75 µM) | CC(C)CN1CCN(c2cc3c(cc2F)c(=O)c(C(=O)O)cn3-c2ccc(F)cc2F)CC1
40 | 0.1 (≈ 0.247 µM) | COc1c(N2CCCC(CN)C2)c(F)c(N)c2c(=O)c(C(=O)O)cn(C3CC3)c12 (stereo not drawn)
41 | 0.05 (≈ 0.128 µM) | CCNCC1CCN(c2c(F)cc3c(=O)c(C(=O)O)cn(C4CC4)c3c2F)C1 (stereo not drawn) [PD-117558]
42 | 0.1 (≈ 0.268 µM) | CCNCC1CCN(c2cc3c(cc2F)c(=O)c(C(=O)O)cn3C2CC2)C1 (stereo not drawn)
43 | 0.05 (≈ 0.123 µM) | CCNCC1CCN(c2c(F)c(N)c3c(=O)c(C(=O)O)cn(C4CC4)c3c2F)C1 (stereo not drawn)
44 | 0.2 (≈ 0.495 µM) | COc1c(N2CC(C)NC(C)C2)c(F)c(N)c2c(=O)c(C(=O)O)cn(C3CC3)c12 (stereo not drawn)
45 | 0.013 (≈ 0.0344 µM) | NCC1CCN(c2c(F)c(N)c3c(=O)c(C(=O)O)cn(C4CC4)c3c2F)C1 (stereo not drawn)
46 | 0.4 (≈ 1.03 µM) | CC(C)NCC1CCN(c2cc3c(cc2F)c(=O)c(C(=O)O)cn3C2CC2)C1 (stereo not drawn)

Row | MIC [mg/L] | SMILES
47 | 0.025 (≈ 0.0668 µM) | CC(N)C1CCN(c2cc3c(c(N)c2F)c(=O)c(C(=O)O)cn3C2CC2)C1 (stereo not drawn)
48 | 0.05 (≈ 0.139 µM) | CCN1CCN(c2cc3c(cc2F)c(=O)c(C(=O)O)cn3C2CC2)CC1 [ENROFLOXACIN]
49 | 0.8 (≈ 2.4 µM) | CC(C)n1cc(C(=O)O)c(=O)c2cc(F)c(N3CCC(N)C3)cc21 (stereo not drawn)
50 | 0.4 (≈ 0.906 µM) | CCNCC1CCN(c2c(F)cc3c(=O)c(C(=O)O)cn(C4CC4)c3c2C(F)(F)F)C1 (stereo not drawn)
51 | 0.2 (≈ 0.496 µM) | CCOc1c(N2CCC(C)(CN)C2)c(F)cc2c(=O)c(C(=O)O)cn(C3CC3)c12 (stereo not drawn)
52 | 0.1 (≈ 0.25 µM) | NC1CCN(c2c(F)cc3c(=O)c(C(=O)O)cn(C4CC4)c3c2C(F)(F)F)C1 (stereo not drawn)
53 | 0.1 (≈ 0.264 µM) | CCNCC1CCN(c2c(F)cc3c(=O)c(C(=O)O)cn(CC)c3c2F)C1 (stereo not drawn) [MERAFLOXACIN]
54 | 0.2 (≈ 0.572 µM) | CCn1cc(C(=O)O)c(=O)c2cc(F)c(N3CCC(N)C3)c(OC)c21 (stereo not drawn)
55 | 0.1 (≈ 0.277 µM) | CNCC1CCN(c2nc3c(cc2F)c(=O)c(C(=O)O)cn3C2CC2)C1 (stereo not drawn)
56 | 0.4 (≈ 1.16 µM) | NC1CCN(c2cc3c(cc2F)c(=O)c(C(=O)O)cn3C2CCC2)C1 (stereo not drawn)
57 | 0.2 (≈ 0.514 µM) | COc1c(N2CCCC(CN)C2)c(F)cc2c(=O)c(C(=O)O)cn(C3CC3)c12 (stereo not drawn)
58 | 0.1 (≈ 0.258 µM) | CCCCN1CCN(c2cc3c(cc2F)c(=O)c(C(=O)O)cn3C2CC2)CC1
59 | 0.1 (≈ 0.266 µM) | COc1c(N2CCCC(N)C2)c(F)cc2c(=O)c(C(=O)O)cn(C3CC3)c12 (stereo not drawn)
60 | 0.2 (≈ 0.51 µM) | CC1(CN)CCN(c2c(F)c(N)c3c(=O)c(C(=O)O)cn(C4CC4)c3c2F)C1 (stereo not drawn)
61 | 0.013 (≈ 0.0344 µM) | CC(N)C1CCN(c2c(F)cc3c(=O)c(C(=O)O)cn(C4CC4)c3c2F)C1 (stereo not drawn)
62 | 0.1 (≈ 0.257 µM) | COc1c(N2CCC(CN)CC2)c(F)cc2c(=O)c(C(=O)O)cn(C3CC3)c12
63 | 0.05 (≈ 0.127 µM) | NCC1CCCN(c2c(F)c(N)c3c(=O)c(C(=O)O)cn(C4CC4)c3c2F)C1 (stereo not drawn)
64 | 0.1 (≈ 0.257 µM) | CNC(C)C1CCN(c2cc3c(c(N)c2F)c(=O)c(C(=O)O)cn3C2CC2)C1 (stereo not drawn)
65 | 0.8 (≈ 1.8 µM) | CC(C)N1CCN(c2cc3c(cc2F)c(=O)c(C(=O)O)cn3-c2ccc(F)cc2F)CC1
66 | 0.4 (≈ 1.11 µM) | CC1CN(c2cc3c(cc2F)c(=O)c(C(=O)O)cn3C2CCC2)CCN1 (stereo not drawn)
67 | 0.4 (≈ 0.927 µM) | CCN1CCN(c2cc3c(cc2F)c(=O)c(C(=O)O)cn3-c2ccc(F)cc2F)CC1
68 | 0.2 (≈ 0.533 µM) | CCN1CCN(c2cc3c(cc2F)c(=O)c(C(=O)O)cn3C(C)(C)C)CC1

Row | SMILES | MIC [mg/L]
69 | CCn1cc(C(=O)O)c(=O)c2cc(F)c(N3CCNCC3)cc21 [NORFLOXACIN] | 0.1 (≈ 0.313 µM)
70 | COc1c(N2CCNCC2)c(F)cc2c(=O)c(C(=O)O)cn(C3CC3)c12 | 0.05 (≈ 0.138 µM)
71 | CC(C)(C)n1cc(C(=O)O)c(=O)c2cc(F)c(N3CCNCC3)cc21 | 0.2 (≈ 0.576 µM)
72 | O=C(O)c1cn(C2CCC2)c2cc(N3CCNCC3)c(F)cc2c1=O | 0.4 (≈ 1.16 µM)
73 | CC(C)n1cc(C(=O)O)c(=O)c2cc(F)c(N3CCNCC3)cc21 | 0.8 (≈ 2.4 µM)
